Patent US20180008569A1, “PROSTAGLANDIN TRANSPORTER INHIBITORS FOR INHIBITING OVULATION” (TEL HASHOMER MEDICAL RESEARCH INFRASTRUCTURE AND SERVICES …, priority 2015, published 2018)
Marks after values point to notes of the source that are not given here.

What was measured:
[1] = target: PGT (Homo sapiens, UniProt Q92959); experiment: PGE2 concentration in media of MGCs by enzyme immunoassay (EIA); format: cell-based; parameters: basal media concentration of PGE2: dose or concentration left out as unconfirmed
Description: The concentration of PGE2 in the media was then measured by an enzyme immunoassay (EIA).

[2] = target: T1, PGT (Mus musculus, UniProt Q9EPT5); experiment: Ovulated oocyte count in PMSG-primed/hCG-triggered immature female mice; format: in vivo; parameters: from tissue; host or cells: whole animal: PMSG-primed/hCG-triggered immature female mice (ovary)
T1 sequence (Q9EPT5 whole entry): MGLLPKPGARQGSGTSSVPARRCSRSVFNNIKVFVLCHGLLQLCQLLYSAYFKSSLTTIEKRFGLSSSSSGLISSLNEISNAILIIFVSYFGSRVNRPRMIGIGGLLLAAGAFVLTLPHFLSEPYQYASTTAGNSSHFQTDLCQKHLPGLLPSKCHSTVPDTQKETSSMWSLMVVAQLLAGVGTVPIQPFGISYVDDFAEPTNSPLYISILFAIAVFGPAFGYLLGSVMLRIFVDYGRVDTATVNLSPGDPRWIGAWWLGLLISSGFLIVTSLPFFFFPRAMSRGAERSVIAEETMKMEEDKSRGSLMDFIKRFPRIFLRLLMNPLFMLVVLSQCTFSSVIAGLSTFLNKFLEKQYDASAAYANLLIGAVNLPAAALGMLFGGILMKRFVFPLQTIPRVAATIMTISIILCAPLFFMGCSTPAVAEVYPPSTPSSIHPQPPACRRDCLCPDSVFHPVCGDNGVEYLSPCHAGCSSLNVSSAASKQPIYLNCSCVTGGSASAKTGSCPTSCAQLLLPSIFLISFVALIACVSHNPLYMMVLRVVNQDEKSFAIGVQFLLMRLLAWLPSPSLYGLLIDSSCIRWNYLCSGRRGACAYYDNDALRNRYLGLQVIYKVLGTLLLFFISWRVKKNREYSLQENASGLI

[3] = target: T1, PGT; experiment: Ovarian morphology (histology) in superovulated mice
[4] = target: T1, PGT; experiment: Oocyte maturation and cumulus expansion in vivo in mice; parameters: from tissue; host or cells: whole animal: PMSG-primed/hCG-triggered immature female mice (ovary)
Description: Ovulated COCs from hCG-treated mice were collected from the ampulla of the oviduct.

[5] = tested on: PGE2 downstream target genes; experiment: Ovarian expression of ovulatory cascade, PG receptor and PG metabolism genes by qPCR in PMSG-primed/hCG+DIDS-treated mice; format: in vivo
Description: To characterize the ovulation-blocking effect of PGT at the molecular level, the effect of DIDS on the LH/CGR dependent activities was evaluated. Key representative genes of the ovulatory cascade were studied, including, oocyte maturation genes: amphiregulin (AREG), epiregulin (EREG), progesterone receptor (PR); cumulus expansion genes: tumor necrosis factor alpha-induced protein (TNFAIP6); follicular rupture related genes: disintegrin and metalloproteinase with thrombospondin motifs 1 (ADAMTS1), cathepsin L (CTSL); the ovulatory related genes: follicle stimulating hormone receptor (FSHR) and luteinizing hormone/chorionic gonadotropin receptor (LHCGR); and steroidogenesis related genes: steroidogenic acute regulatory protein (StAR) and cholesterol side cleavage chain (p450SCC). After total RNA was extracted from the ovaries of PMSG-primed/hCG+DIDS-treated mice and converted to cDNA, the expression of genes of interest was quantified by qPCR.

[6] = Serum progesterone levels (corpus luteum function) in PMSG-primed/hCG-triggered mice; format: in vivo; conditions: concurrent treatment with DIDS, 24 hours post-hCG
Description: In order to assess corpus luteum function, serum progesterone levels were measured in PMSG-primed/hCG-triggered mice in the absence or presence of DIDS.

[7] = tested on: PGT transcripts in MGCs; experiment: PGT transcripts (qPCR) in cultured FSH-pretreated human mural granulosa cells; conditions: for FSK-induced upregulation of PGT expression: then FSK 10 μM 24 hours; for hCG-induced upregulation of PGT expression: then hCG 1U/ml 24 hours
Description: FSH-pretreated MGCs were then exposed to vehicle (PBS) or AREG for 24 hours. PGT was quantified by qPCR and normalized to/3-actin expression. Data represent the mean±SEM of three independent experiments.

[8] = tested on: EP4 receptor; experiment: EP4 receptor mRNA expression in FSH-pretreated MGCs; format: cell-based, human; conditions: 10 μM PGE2, 24 hours
[9] = tested on: EP receptor; experiment: Intracellular cAMP in MGCs after PGE2 pretreatment (EP receptor desensitization); format: cell-based, human; conditions: pretreated with 10 μM PGE2 10 min, washed, 10 μM PGE2 additional 10 min
Description: Inhibition of PGT activity or the provision of excess PGE2 results in the desensitization of the prostaglandin receptors […] and EP4 and thereby in a reduction in PGE2 signaling. An important second messenger for PGE2 is intracellular cAMP resulting from activation of either EP2 or EP4 receptor by PGE2. Thus, the hypothesis that excess PGE2 results in reduced PG signaling in human granulosa cells was tested. MGCs were incubated with 10 μM PGE2 for 10 min or pretreated with 10 μM PGE2 for 10 min, washed and then treated with 10 μM PGE2 for additional 10 min cAMP levels were measured in the cell lysate and was normalized to total protein content.

[10] = tested on: whole ovarian PGT transcripts; experiment: Whole ovarian PGT transcripts in PMSG-primed/hCG-triggered immature mouse superovulation model; format: in vivo; conditions: PMSG for 48 hours
[11] = Homo sapiens, read-out: increase in PGT transcripts (fold induction)

Molecule: Cc1c(C2(c3cc(Br)c(O)c(Br)c3C)OS(=O)(=O)c3ccccc32)cc(Br)c(O)c1Br [BCG, Bromocresol Green]
- increase in the media concentration of PGE2 relative to controls ([1]; co-treatment hCG 1U/ml + BCG 50 mM, 24 hours): ~3 fold
- basal media concentration of PGE2 ([1]; no hCG): without effect
- ovulation ([2]; BCG at 500 and 350 mg/kg with hCG, 16 hours): complete blockade of ovulation
- No. ova/ovulating mice (Mean ± SEM) ([2]; hCG + BCG 250 mg/kg, 16 hours): 58.4 ± 7.4
- Range of oocytes in ovulating mice ([2]; hCG + BCG 250 mg/kg, 16 hours): 12-61
- No. ova/ovulating mice (Mean ± SEM) ([2]; hCG + BCG 300 mg/kg, 16 hours): 1.3*
- Range of oocytes in ovulating mice ([2]; hCG + BCG 300 mg/kg, 16 hours): 1-2
- No. ova/ovulating mice (Mean ± SEM) ([2]; hCG + BCG 350 mg/kg, 16 hours): 0*
- No. ova/ovulating mice (Mean ± SEM) ([2]; hCG + BCG 500 mg/kg, 16 hours): 0*
- ovarian morphology ([3]; hCG+BCG 350 mg/kg, 16 hours after hCG): un-ruptured follicles with entrapped oocytes

Molecule: O=S(=O)(O)c1cc(N=C=S)ccc1C=Cc1ccc(N=C=S)cc1S(=O)(=O)O [DIDS, 4,4′-Diisothiocyanatostilbene-2,2′-disulfonic acid]
- cumulus state of COCs ([4]; DIDS, 24 hours following treatment with hCG): compact cumulus
- oocytes at GV ([4]; hCG + DIDS): 100% (102/102)
- oocytes at MI ([4]; hCG + DIDS): 0% (0/102)
- oocytes at MII ([4]; hCG + DIDS): 0% (0/102)
- cumulus state of COCs ([4]; hCG and DIDS 50 mg/kg): compact cumulus
- oocyte maturation stage ([4]; hCG+DIDS-treated mice): immature and at the GV stage
- cumuli of recovered cumulus-oocyte-complexes ([4]; lower doses of DIDS): expanded normal-appearing cumuli
- denuded oocytes from recovered cumulus-oocyte-complexes ([4]; lower doses of DIDS): morphologically normal, mature (M2)
- PGDH expression ([5]; addition of DIDS): not affected
- downregulation of EP2 by hCG ([5]; addition of DIDS): abolished
- reduction of FSHR mRNA in response to hCG ([5]; addition of DIDS): abolished
- upregulation by hCG of COX-2 ([5]; addition of DIDS): inhibited
- upregulation by hCG of EP4 ([5]; addition of DIDS): inhibited
- upregulation by hCG of PGT ([5]; addition of DIDS): inhibited
- expression of most of the ovulation related transcripts studied (except p450SCC and LHCGR) ([5]; ovaries of PMSG-primed/hCG+DIDS-treated mice): profound inhibition
- ovulated oocyte count ([2]; different concentrations of DIDS at time of hCG, 16 hours): dose-dependent decrements
- No. of oocytes in ovulating mice ([2]; hCG + DIDS 5 mg/kg, 16 hours): 7-77
- No. ova/ovulating mice (Mean ± SEM) ([2]; hCG + DIDS 5 mg/kg, 16 hours): 53.5 ± 5.1
- No. of oocytes in ovulating mice ([2]; hCG + DIDS 10 mg/kg, 16 hours): 10-60
- No. ova/ovulating mice (Mean ± SEM) ([2]; hCG + DIDS 10 mg/kg, 16 hours): 27.4 ± 6.8
- No. of oocytes in ovulating mice ([2]; hCG + DIDS 20 mg/kg, 16 hours): 1-51
- No. ova/ovulating mice (Mean ± SEM) ([2]; hCG + DIDS 20 mg/kg, 16 hours): 22 ± 6.8
- No. ova/ovulating mice (Mean ± SEM) ([2]; hCG + DIDS 50 mg/kg, 16 hours): 9
- inhibition at 50 mg/kg ([2]; mouse, read-out: inhibition of ovulation): 95.5%
- ovarian morphology ([3]; hCG+DIDS, 16 hours after hCG): numerous unruptured preovulatory follicles with entrapped oocytes
- ovarian morphology ([3]; hCG+DIDS, forty hours after hCG injection): still contained entrapped oocytes in preovulatory follicles
- serum progesterone levels [6]: significant reduction

Molecule: C=C[C@@]1(C)CC(=O)[C@]2(O)[C@@]3(C)[C@@H](O)CCC(C)(C)[C@@H]3[C@H](O)[C@H](OC(C)=O)[C@@]2(C)O1 [FSK, forskolin]
- fold induction at 10 µM [7, 11]: 25

Molecule: O=S(=O)(NCCNC/C=C/c1ccc(Br)cc1)c1cccc2cnccc12 [H89]
- FSK-induced upregulation of PGT expression ([7]; pretreatment 10 μM for 1 hour): largely inhibited
- hCG-induced upregulation of PGT expression ([7]; pretreatment 10 μM for 1 hour): largely inhibited

Molecule: CCCCC[C@H](O)/C=C/[C@H]1[C@H](O)CC(=O)[C@@H]1C/C=C\CCCC(=O)O [PGE2, Prostaglandin E2]
- EP4 receptor mRNA expression compared to controls [8]: significant downregulation
- intracellular cAMP in response to further PGE2 stimulation [9]: significantly reduced accumulation of intracellular cAMP

Molecule: CCCCCCCCCCCCCC(=O)O[C@@H]1[C@@H](C)[C@@]2(O)[C@@H](C=C(CO)C[C@]3(O)C(=O)C(C)=C[C@@H]23)[C@@H]2C(C)(C)[C@]12OC(C)=O [PMA, phorbol myristate acetate]
- fold induction at 0.02 µM [7, 11]: 11

Molecule: N#CC(=C(/N)Sc1ccccc1N)/C(C#N)=C(\N)Sc1ccccc1N [U0126]
- FSK-induced upregulation of PGT expression ([7]; pretreatment 10 μM for 1 hour): markedly inhibited
- PMA-mediated upregulation of PGT transcripts ([7]; pretreatment 10 μM for 1 hour, then PMA 20 nM 24 hours): markedly inhibited
- hCG-induced upregulation of PGT expression ([7]; pretreatment 10 μM for 1 hour): effectively abolished

Molecule: Pregnant mare serum gonadotropin [PMSG]
- level of PGT in the ovaries relative to control (saline) [10]: 2.3 folds

B1: amphiregulin (protein, UniProt P31955 100-248, looked up)
Amphiregulin: VIKPKKNKTEGEKSTEKPKRKKKGGKNGKGRRNKKKKNPCTAKFQNFCIHGECRYIENLEVVTCNCHQDYFGERCGEKSMKTHSEDDKDLSKIAVVAVTIFVSAIILAAIGIGIVITVHLWKRYFREYEGETEERRRLRQENGTVHAIA
- induction of PGT expression ([7]; FSH-pretreated MGCs exposed to AREG for 24 hours, vs vehicle (PBS)): 3 fold
